In ChEMBL document CHEMBL5696442, “Discovery of type II inhibitors of TGFβ-activated kinase 1 (TAK1) and mitogen-activated protein kinase kinase kinase kinase 2 (MAP4K2)” (J Med Chem, 2015):

Assays:
[1] = molecular target: T1, Serine/threonine-protein kinase greatwall (Homo sapiens) (UniProt Q96GX5); experiment: Inhibition of MASTL Lys2 labeling site in human Huh-7 cell lysate at 1 uM by KiNativ Profiling analysis relative to control; format: subcellular
T1 sequence (whole entry): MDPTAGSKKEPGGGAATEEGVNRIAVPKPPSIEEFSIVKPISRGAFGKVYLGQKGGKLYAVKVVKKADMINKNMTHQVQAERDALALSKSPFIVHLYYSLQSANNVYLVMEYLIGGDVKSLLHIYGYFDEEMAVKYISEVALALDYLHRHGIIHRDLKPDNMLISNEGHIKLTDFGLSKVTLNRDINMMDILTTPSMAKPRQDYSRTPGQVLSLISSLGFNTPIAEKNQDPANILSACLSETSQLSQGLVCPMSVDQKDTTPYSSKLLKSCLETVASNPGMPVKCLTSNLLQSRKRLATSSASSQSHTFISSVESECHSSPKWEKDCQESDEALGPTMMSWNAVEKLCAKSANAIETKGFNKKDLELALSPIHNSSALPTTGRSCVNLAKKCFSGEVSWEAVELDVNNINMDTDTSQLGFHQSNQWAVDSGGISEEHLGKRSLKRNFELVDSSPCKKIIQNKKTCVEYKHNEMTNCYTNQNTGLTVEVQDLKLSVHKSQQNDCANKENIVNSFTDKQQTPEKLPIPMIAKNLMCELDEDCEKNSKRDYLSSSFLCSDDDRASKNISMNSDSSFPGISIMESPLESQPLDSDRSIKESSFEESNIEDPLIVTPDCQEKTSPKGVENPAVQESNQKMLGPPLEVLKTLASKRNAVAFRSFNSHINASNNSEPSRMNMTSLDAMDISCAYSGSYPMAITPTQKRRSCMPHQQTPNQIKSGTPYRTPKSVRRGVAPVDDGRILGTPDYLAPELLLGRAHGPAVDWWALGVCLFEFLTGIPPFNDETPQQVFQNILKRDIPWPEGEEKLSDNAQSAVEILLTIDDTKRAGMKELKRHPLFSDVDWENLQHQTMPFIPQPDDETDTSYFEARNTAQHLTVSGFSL

[2] = molecular target: T2, Serine/threonine-protein kinase D3 (Homo sapiens) (UniProt O94806); experiment: Inhibition of PKD3 Lys2 labeling site in human A-375 cells at 0.5 uM by KiNativ Profiling analysis relative to control; format: cell-based
T2 sequence (whole entry): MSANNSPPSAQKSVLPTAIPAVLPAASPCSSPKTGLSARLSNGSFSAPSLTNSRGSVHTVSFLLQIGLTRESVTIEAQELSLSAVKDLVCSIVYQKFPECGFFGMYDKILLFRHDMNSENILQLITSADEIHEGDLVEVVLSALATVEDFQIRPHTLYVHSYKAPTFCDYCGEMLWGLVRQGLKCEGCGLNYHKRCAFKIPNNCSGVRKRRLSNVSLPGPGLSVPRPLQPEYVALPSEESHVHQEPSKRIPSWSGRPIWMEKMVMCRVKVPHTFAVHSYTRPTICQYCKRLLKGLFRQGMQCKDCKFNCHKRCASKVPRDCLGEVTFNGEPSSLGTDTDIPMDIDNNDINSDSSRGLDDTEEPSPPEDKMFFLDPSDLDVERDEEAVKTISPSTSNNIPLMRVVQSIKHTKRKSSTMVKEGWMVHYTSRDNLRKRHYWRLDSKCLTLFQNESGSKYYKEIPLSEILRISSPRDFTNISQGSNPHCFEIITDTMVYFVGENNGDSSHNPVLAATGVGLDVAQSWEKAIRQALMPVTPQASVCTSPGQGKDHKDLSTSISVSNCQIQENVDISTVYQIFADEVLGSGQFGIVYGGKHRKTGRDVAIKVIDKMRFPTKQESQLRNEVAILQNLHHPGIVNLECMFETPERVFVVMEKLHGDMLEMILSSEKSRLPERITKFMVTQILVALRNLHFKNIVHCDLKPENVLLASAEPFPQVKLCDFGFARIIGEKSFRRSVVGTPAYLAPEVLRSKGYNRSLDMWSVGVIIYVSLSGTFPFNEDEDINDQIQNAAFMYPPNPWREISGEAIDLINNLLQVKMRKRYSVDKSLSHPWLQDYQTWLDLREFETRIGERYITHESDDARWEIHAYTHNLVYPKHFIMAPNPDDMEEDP

[3] = test system: Receptor-type tyrosine-protein kinase FLT3 (Homo sapiens), P36888 [R834Q]; experiment: Inhibition of FLT3 R834Q mutant (unknown origin) at 1 uM by Ambit Kinomescan binding assay relative to control; values are per cent of control
[4] = molecular target: Mitogen-activated protein kinase 3 (Homo sapiens) (UniProt P27361); experiment: Inhibition of Erk1 Lys2 labeling site harbouring YIHSANVLHRDLKPSNLLINTTCDLK in human A-375 cells at 0.05 uM by KiNativ Profiling analysis relative to control; format: cell-based
[5] = molecular target: Serine/threonine-protein kinase DCLK3 (Homo sapiens) (UniProt Q9C098); experiment: Inhibition of DCAMKL3 (unknown origin) at 1 uM by Ambit Kinomescan binding assay relative to control; values are per cent of control
[6] = molecular target: T3, Inhibitor of nuclear factor kappa-B kinase subunit alpha (Homo sapiens) (UniProt O15111); experiment: Inhibition of IKK-alpha (unknown origin) at 1 uM by Ambit Kinomescan binding assay relative to control; values are per cent of control
T3 sequence (whole entry): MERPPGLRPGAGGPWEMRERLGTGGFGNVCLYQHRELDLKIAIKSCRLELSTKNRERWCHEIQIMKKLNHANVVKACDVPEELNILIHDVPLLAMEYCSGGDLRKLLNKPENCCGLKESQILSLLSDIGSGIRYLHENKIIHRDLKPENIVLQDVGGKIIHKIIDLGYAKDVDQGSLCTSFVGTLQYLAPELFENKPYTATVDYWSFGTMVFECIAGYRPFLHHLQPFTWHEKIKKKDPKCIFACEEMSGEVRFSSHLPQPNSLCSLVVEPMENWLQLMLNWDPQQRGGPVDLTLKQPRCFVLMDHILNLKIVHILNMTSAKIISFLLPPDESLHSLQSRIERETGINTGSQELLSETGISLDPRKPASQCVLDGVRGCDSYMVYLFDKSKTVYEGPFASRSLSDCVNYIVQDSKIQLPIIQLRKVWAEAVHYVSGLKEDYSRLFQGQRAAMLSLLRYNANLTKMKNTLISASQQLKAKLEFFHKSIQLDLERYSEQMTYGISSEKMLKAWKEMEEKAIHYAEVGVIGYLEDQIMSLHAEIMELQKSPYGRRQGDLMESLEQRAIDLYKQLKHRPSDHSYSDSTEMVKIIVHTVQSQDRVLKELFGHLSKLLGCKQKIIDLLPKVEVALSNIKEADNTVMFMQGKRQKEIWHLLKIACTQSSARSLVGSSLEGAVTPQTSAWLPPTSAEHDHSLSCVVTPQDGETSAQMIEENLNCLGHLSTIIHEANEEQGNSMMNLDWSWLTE

Mitogen-activated protein kinase 3 (Homo sapiens), sequence (P27361 whole entry): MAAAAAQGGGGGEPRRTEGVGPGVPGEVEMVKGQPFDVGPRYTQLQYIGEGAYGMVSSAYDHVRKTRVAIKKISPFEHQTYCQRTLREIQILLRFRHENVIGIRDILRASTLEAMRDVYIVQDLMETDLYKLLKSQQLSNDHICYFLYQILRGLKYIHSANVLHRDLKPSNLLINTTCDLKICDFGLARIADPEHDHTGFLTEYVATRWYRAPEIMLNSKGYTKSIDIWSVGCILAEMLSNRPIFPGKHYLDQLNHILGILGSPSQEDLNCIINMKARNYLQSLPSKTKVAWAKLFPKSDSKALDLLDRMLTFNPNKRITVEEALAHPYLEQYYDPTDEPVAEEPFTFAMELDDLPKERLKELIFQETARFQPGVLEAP
Serine/threonine-protein kinase DCLK3 (Homo sapiens), sequence (Q9C098 whole entry): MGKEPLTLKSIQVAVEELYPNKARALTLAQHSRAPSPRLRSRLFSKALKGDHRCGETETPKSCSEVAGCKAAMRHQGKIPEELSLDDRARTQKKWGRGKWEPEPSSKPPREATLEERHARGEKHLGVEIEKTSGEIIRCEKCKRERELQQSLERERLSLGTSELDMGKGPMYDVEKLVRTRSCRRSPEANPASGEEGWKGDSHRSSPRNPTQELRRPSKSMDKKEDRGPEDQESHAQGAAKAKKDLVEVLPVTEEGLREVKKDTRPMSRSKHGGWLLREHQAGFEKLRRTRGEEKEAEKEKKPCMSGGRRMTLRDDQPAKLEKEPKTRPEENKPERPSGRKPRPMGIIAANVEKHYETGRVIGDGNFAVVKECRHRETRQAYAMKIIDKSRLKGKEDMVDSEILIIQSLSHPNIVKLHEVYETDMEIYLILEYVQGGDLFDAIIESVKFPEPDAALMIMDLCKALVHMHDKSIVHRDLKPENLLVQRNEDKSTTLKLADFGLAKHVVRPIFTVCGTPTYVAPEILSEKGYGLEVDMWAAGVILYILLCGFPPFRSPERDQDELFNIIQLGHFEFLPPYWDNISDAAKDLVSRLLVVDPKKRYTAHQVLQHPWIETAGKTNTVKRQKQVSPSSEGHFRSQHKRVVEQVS

Structure (SMILES): CNc1cc(Oc2cc(C(=O)Nc3cc(N4CCN(C)CC4)cc(C(F)(F)F)c3)ccc2C)ncn1
- inhibition [1]: 26%

Structure (SMILES): CCN1CCN(Cc2ccc(NC(=O)c3ccc(C)c(/C=C/c4cnc5[nH]ccc5c4OC)c3)cc2C(F)(F)F)CC1
- inhibition [2]: -8.8%
- residual activity [3]: 7.4%
- inhibition [4]: -5.4%
- residual activity [5]: 100%
- residual activity [6]: 2%
